The target in assay [1] is T1, oxytocin receptors (Rattus norvegicus, UniProt P70536).
T1 construct: The uteri are dissected out, cleaned of fat and connective tissues; from tissue; host or cells: uterus of DES-treated female Sprague-Dawley rats
T1 sequence (P70536 1-388): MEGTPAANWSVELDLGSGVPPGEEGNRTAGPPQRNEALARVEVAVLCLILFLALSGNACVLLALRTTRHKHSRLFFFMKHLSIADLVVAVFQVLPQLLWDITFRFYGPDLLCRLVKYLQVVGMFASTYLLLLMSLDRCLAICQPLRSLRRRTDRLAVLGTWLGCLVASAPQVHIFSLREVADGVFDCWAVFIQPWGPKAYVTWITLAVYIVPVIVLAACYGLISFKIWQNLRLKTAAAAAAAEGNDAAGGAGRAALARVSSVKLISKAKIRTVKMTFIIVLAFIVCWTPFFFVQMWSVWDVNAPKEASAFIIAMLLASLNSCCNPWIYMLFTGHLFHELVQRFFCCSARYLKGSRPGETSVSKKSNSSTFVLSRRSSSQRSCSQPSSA
The assay is described as follows: Oxytocin Receptor Binding. Conditions: for IC50: 1.0 nM [3H]oxytocin. Here is the method: Oxytocin Receptor Binding
Female Sprague-Dawley rats weighing approximately 200-250 g are injected intramuscularly (i.m.) with 0.3 mg/kg of body weight of diethylstilbestrol (DES). The rats are sacrificed 18 hours later under pentobarbital anesthesia. The uteri are dissected out, cleaned of fat and connective tissues and rinsed in 50 ml of normal saline. The tissue pooled from six rats is homogenized in 50 ml of […] Tris.HCl, containing 0.5 mM dithiothreitol and 1.0 mM EDTA, adjusted to pH 7.4, using a polytron at setting 6 with three passes of 10 sec each. The homogenate is passed through two (2) layers of cheesecloth and the filtrate centrifuged at 1000× g for 10 min. The clear supernatant is removed and recentrifuged at 165,000× g for 30 min. The resulting pellet containing the oxytocin receptors is resuspended in 50.0 mM Tris.HCl containing 5.0 mM MgCl2 at pH 7.4, to give a protein concentration of 2.5 mg/ml of tissue suspension. This preparation is used in subsequent binding assays with [^3 H]Oxytocin.
Binding of 3,5-[^3 H]Oxytocin ([^3 H]OT) to its receptors is done in microtiter plates using [^3 H]OT, at various concentrations, in an assay buffer of 50.0 mM Tris.HCl, pH 7.4 and containing 5.0 mM MgCl2, and a mixture of protease inhibitors: BSA, 0.1 mg; aprotinin, 1.0 mg; 1,10-phenanthroline, 2.0 mg; […], 10.0 mg; and PMSF, 0.3 mg per 100 ml of buffer solution. Non-specific binding is determined in the presence of 1.0 uM unlabeled OT. The binding reaction is terminated after 60 min , at 22° C. by rapid filtration through glass fiber filters using a Brandel® cell harvester (Biomedical Research and Development Laboratories, Inc., Gaithersburg, Md.). Competition experiments are conducted at equilibrium using 1.0 nM [^3 H]OT and varying the concentration of the displacing agents. The concentrations of agent displacing 50% of [^3 H]OT at its sites (IC50) are calculated by a computer assisted LUNDON-2 program (LUNDON SOFTWARE INC., Ohio, USA).

Assay [2] concerns Vasopressin V1. As to the kind of experiment: Vasopressin V1 Antagonist Activity in Conscious Rats (vasopressin vasopressor response). In kind it is in vivo, rat. The conditions noted are these: 10 mg/kg i.v. As to the method:
Vasopressin V1 Antagonist Activity in Conscious Rats
Conscious rats are restrained in a supine position with elastic tape. The area at the base of the tail is locally anesthetized by subcutaneous infiltration with 2% procaine (0.2 ml). Using aseptic technique the ventral caudal tail artery is isolated and a cannula made of PE 10 and 20 (heat-fused) tubing is passed into the lower abdominal aorta. The cannula is secured, heparinized (1000 i.u./cc), sealed and the wound closed with one or two stitches of Dexon 4-0. The caudal vein is also cannulated in the same manner for intravenous drug administration. The duration of the surgery is approximately 5 minutes. Additional local anesthesia (2% procaine or lidocaine) is provided as needed.
The animals are placed in plastic restraining cages in an upright position. The cannula is attached to a Statham P23Db pressure transducer and pulsatile blood pressure is recorded. […] The vasopressin injections are repeated 30,60,90,120,180,240 and 300 min. later. Percentage of antagonism by the compound is calculated using the pre-drug vasopressin vasopressor response as 100%.

The test system of assay [3] is Vasopressin V2. The assay is described as follows: Vasopressin V2 Antagonist Activity in Conscious Hydrated Rats. It counts as in vivo, rat. Conditions: AVP 0.4 μg/kg i.p. Here is the method:
Vasopressin V2 Antagonist Activity in Conscious Hydrated Rats
Conscious hydrated rats are treated with compounds under study from 0.1 to 100 mg/kg orally or vehicle. Two to four rats are used for each compound. One hour later, arginine vasopressin (AVP, antidiuretic hormore, ADH) dissolved in peanut oil is administered at 0.4 μg/kg intraperitoneally. Two rats in each test would not receive arginine vasopressin but only the vehicle (peanut oil) to serve as water-loading control. Twenty minutes later each rat is given 30 mL/kg of deionized water orally by gavage and is placed individually in a metabolic cage equipped with a funnel and a graduated glass cylinder to collect urine for four hours. Urine volume is measured and osmolality analyzed by use of a Fiske One-Ten osmometer (Fiske Assoc., Norwood, Mass., USA). Urinary sodium, potassium, and chloride are analyzed by use of ion-specific electrodes in a Beckman E3 (Electrolyte 3) Analyzer.

Broadly, the inhibition is the share of the control response that was lost under treatment. Lower therefore signals little suppression. In turn, `Cc1ccc(F)cc1C(=O)Nc1ccc(C(=O)O)cc1Cl` [Example 436, 4-[(5-fluoro-2-methylbenzoyl)amino]-3-chlorobenzoic acid] gave an inhibition at 10 µM in assay [1] (dose 10 μM, [3H]oxytocin) of 32%. In assay [1] (dose 1 μM, [3H]oxytocin), `O=C(Nc1ccc(C(=O)O)c(Cl)c1)c1cccc(F)c1` [Example 441, 4-[[3-fluorobenzoyl]amino]-2-chloro-benzoic acid] came in with an inhibition at 1 µM of 22%. In turn, `CCOC(=O)c1ccc2n1Cc1ccccc1N(C(=O)c1ccc([N+](=O)[O-])cc1Cl)C2` [Example 443, Ethyl 10,11-dihydro-10-(2-chloro-4-nitrobenzoyl)-5H-pyrrolo[2,1-c][1,4]benzodiazepine-3-carboxylate] showed an inhibition at 10 µM in assay [1] (dose 10 μM, [3H]oxytocin) of 70%. In assay [1] (dose 10 μM, [3H]oxytocin), `CCOC(=O)c1ccc2n1Cc1ccccc1N(C(=O)c1ccc([N+](=O)[O-])c(C)c1)C2` [Example 444, ethyl 10,11-dihydro-10-(3-methyl-4-nitrobenzoyl)-5H-pyrrolo[2,1-c][1,4]-benzodiazepine-3-carboxylate] had an inhibition at 10 µM of 21%. Same read-out and setting: next, `Cc1cc(C(=O)N2Cc3ccc(C(=O)C(Cl)(Cl)Cl)n3Cc3ccccc32)ccc1[N+](=O)[O-]` [Example 448]: 11%. The same measure, in the same setting: next, `O=C(c1ccc([N+](=O)[O-])cc1)N1Cc2ccc(C(=O)C(Cl)(Cl)Cl)n2Cc2ccccc21` [Example 449, 10,11-dihydro-10-(4-nitrobenzoyl)-[3-(trichloroacetyl)]-5H-pyrazolo[2,1-c]-[1,4]benzodiazepine]: 14%. `O=C(c1ccc([N+](=O)[O-])cc1Cl)N1Cc2ccc(C(=O)C(Cl)(Cl)Cl)n2Cc2ccccc21` [Example 450, 10,11-dihydro-10-(2-chloro-4-nitro-benzoyl)-[3-(trichloroacetyl)]-5H-pyrrolo[2,1-c][1,4]benzodiazepine]: the inhibition at 10 µM in assay [1] (dose 10 μM, [3H]oxytocin) came to 22%. On the same count and under the same terms, the figure for `O=C(c1ccc([N+](=O)[O-])cc1)N1Cc2ccc(C(=O)C(F)(F)F)n2Cc2ccccc21` [Example 451, 10,11-Dihydro-10-(4-nitrobenzoyl)-[3-(trifluoroacetyl)]-5H-pyrrolo[2,1-c][1,4]benzodiazepine] is 43%; for `O=C(c1ccc([N+](=O)[O-])cc1Cl)N1Cc2ccc(C(=O)C(F)(F)F)n2Cc2ccccc21` [Example 452, 10,11-dihydro-10-(2-chloro-4-nitro-benzoyl)[3-(trifluoroacetyl)]-5H-pyrrolo[2,1-c][1,4]benzodiazepine] it is 36%. One may read the IC50 as the midpoint of a concentration-inhibition curve. A low value points to inhibition by little substance. Regarding `COc1cc(C(=O)N2Cc3cccn3Cc3ccccc32)ccc1[N+](=O)[O-]` [Example 455, 10,11-Dihydro-10-(3-methoxy-4-nitrobenzoyl)-5H-pyrrolo[2,1-c][1,4]benzodiazepine], the IC50 in assay [1] turned out to be 2900 nM. Testing at 10 µM in assay [1] (dose 10 μM, [3H]oxytocin) gave an inhibition of 75%. The matching figures for `COc1cc(C(=O)N2Cc3cccn3Cc3ccccc32)ccc1N` [Example 460, 10,11-Dihydro-10-(4-amino-3-methoxybenzoyl)-5H-pyrrolo[2,1-c][1,4]benzodiazepine]: 3100 nM and 77%. In assay [1] (dose 10 μM, [3H]oxytocin), `Nc1ccc(C(=O)N2Cc3ccc(C(=O)C(F)(F)F)n3Cc3ccccc32)cc1` [Example 462, 10,11-dihydro-10-(4-aminobenzoyl)[3-(trifluoroacetyl)]-5H-pyrrolo[2,1-c]-[1,4]benzodiazepine] yielded an inhibition at 10 µM of 14%. In assay [1], `CCOC(=O)c1ccc2n1Cc1ccccc1N(C(=O)c1ccc(N)c(C)c1)C2` [Example 463, ethyl 10,11-dihydro-10-(4-amino-3-methylbenzoyl)-5H-pyrrolo[2,1-c]-[1,4]benzodiazepine-3-carboxylate] yielded an IC50 of 8500 nM. The same compound showed an inhibition at 10 µM in assay [1] (dose 10 μM, [3H]oxytocin) of 55%.

`CCOC(=O)c1ccc2n1Cc1ccccc1N(C(=O)c1ccc(N)cc1)C2` [Example 464, ethyl 10,11-dihydro-10-(4-aminobenzoyl)-5H-pyrrolo[2,1-c][1,4]benzodiazepine-3-carboxylate]: the IC50 in assay [1] is 2400 nM. The same compound returned an inhibition at 10 µM in assay [1] (dose 10 μM, [3H]oxytocin) of 71%. As to `Cc1ccc(F)cc1C(=O)Nc1ccc(C(=O)N2Cc3cccn3Cc3ccccc32)cc1` [Example 465, N-[4-(5H-Pyrrolo[2,1-c][1,4]benzodiazepin-10(11H)-ylcarbonyl)phenyl]-5-fluoro-2-methylbenzamide], in assay [1], the IC50 was found to be 33 nM. The inhibition at 10 µM in assay [1] (dose 10 μM, [3H]oxytocin) was determined as 93%. In assay [2], the “Max. % Inhibition” value came to 85% and the “Time (of max. % inhibition)” value is 90 min. In assay [3] (10 mg/kg orally), the Osmolality came out at 361 mOsm/kg and the “Urine Volume” value is given as 21.8 ml/4 hrs. For the compound `CCOC(=O)c1ccc2n1Cc1ccccc1N(C(=O)c1ccc(NC(=O)c3ccc(Cl)cc3Cl)cc1)C2` [Example 596, Ethyl 10-[4-[(2,4-dichlorobenzoyl)amino]benzoyl]-10,11-dihydro-5H-pyrrolo[2,1-c][1,4]benzodiazepine-3-carboxylate], the IC50 in assay [1] turned out to be 4000 nM. Besides, in assay [1] (dose 10 μM, [3H]oxytocin), testing at 10 µM gave an inhibition of 86%. In assay [3] (10 mg/kg orally), the Osmolality was 1347 mOsm/kg and the “Urine Volume” value is reported as 2.8 ml/4 hrs.

As a reminder, the % Inhibition is the drop in the measured response relative to a control, in per cent. The low end stands for a weak effect, the high end for a strong effect. Turning to “N-[4-(4H-Pyrazolo[5,1-c][1,4]benzo-diazepin-5(10H)-ylcarbonyl)phenyl]-2-methoxybenzeneacetamide [Example 215]”, the IC50 in assay [1] is 570 nM. Moreover, the “% Inhibition at 10 μM” value in assay [1] (dose 10 μM, [3H]oxytocin) came to 74%. Also, in assay [3] (30 mg/kg orally), the Osmolality is 1520 mOsm/kg and the “Urine Volume” value is 0.7 ml/4 hrs.
